Assay results published in patent publication EP4722201A1, “3-PHENYLISOXAZOLINE-5-CARBOXAMIDE COMPOUND, AND PREPARATION METHOD THEREFOR, HERBICIDAL COMPOSITION THEREOF AND USE THEREOF” (Jiangsu Flag Chemical Industry Co., Ltd, priority 2023, dated 2024).

How the values were obtained:
Format in all cases: in vivo
Cyperus iria [1] = assay: Indoor herbicide activity determination, post-emergence (stem and leaf spray at 2-4 leaf stage); conditions: 504 h, determined 21 days later, read-out: Inhibition rate of fresh weight, Cyperus iria; for inhibition at 30 g/ha: 30 g a.i./ha; for inhibition at 60 g/ha: 60 g a.i./ha
How it was run: (§1)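 Potted weeds in sandy nutrient soil (pH 6.1, 1% organic matter) were grown in a constant-temperature illuminated room to the 2-4 leaf stage, then given a stem-and-leaf spray. Plants went back to the culture room once the spray had dried in shade. At 21 days, fresh weight inhibition % was calculated relative to untreated control plants.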

Digitaria sanguinalis [2] = assay: as above; conditions: 504 h, determined 21 days later, read-out: Inhibition rate of fresh weight, Digitaria sanguinalis; for inhibition at 30 g/ha: 30 g a.i./ha; for inhibition at 60 g/ha: 60 g a.i./ha
How it was run: as §1

Eclipta prostrata [3] = assay: as above; conditions: 504 h, determined 21 days later, read-out: Inhibition rate of fresh weight, Eclipta prostrata; for inhibition at 30 g/ha: 30 g a.i./ha; for inhibition at 60 g/ha: 60 g a.i./ha
How it was run: as §1

Aegilops tauschii = assay: Indoor herbicide activity determination, Seed Treatment; pre-emergence (soil spray); conditions: read-out: Herbicidal activities (inhibition rate) Aegilops tauschii; for inhibition at 60 g/ha: 60 g a.i./ha; for inhibition at 120 g/ha: 120 g a.i./ha
How it was run: (§2)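 Pre-emergence soil spray; sandy soil pH 6.1, OM 1%, 7 cm pots; seeds covered, wetted from below, 24 h incubation under light at constant temperature; spray tower, 300 mm height, 390 mL/min nozzle flow; readout = % fresh-weight inhibition vs control at 21 d.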

Cyperus iria [4] = assay: as above; conditions: read-out: Herbicidal activities (inhibition rate) Cyperus iria; for inhibition at 60 g/ha: 60 g a.i./ha; for inhibition at 120 g/ha: 120 g a.i./ha
How it was run: as §2

Digitaria sanguinalis [5] = assay: as above; conditions: read-out: Herbicidal activities (inhibition rate) Digitaria sanguinalis; for inhibition at 60 g/ha: 60 g a.i./ha; for inhibition at 120 g/ha: 120 g a.i./ha
How it was run: as §2

Eclipta prostrata [6] = assay: as above; conditions: read-out: Herbicidal activities (inhibition rate) Eclipta prostrata; for inhibition at 60 g/ha: 60 g a.i./ha; for inhibition at 120 g/ha: 120 g a.i./ha
How it was run: as §2

Alopecurus japonicus = assay: as above
How it was run: as §2

Alopecurus myosuroides = assay: as above
How it was run: as §2

Eleusine indica = assay: as above
How it was run: as §2

Leptochloa chinensis = assay: as above
How it was run: as §2

Lolium multiflorum = assay: as above
How it was run: as §2

SMILES	inhibition at 30 g/ha (Cyperus iria [1]) [%]	inhibition at 30 g/ha (Digitaria sanguinalis [2]) [%]	inhibition at 30 g/ha (Eclipta prostrata [3]) [%]	inhibition at 60 g/ha (Aegilops tauschii) [%]	inhibition at 60 g/ha (Cyperus iria [4]) [%]	inhibition at 60 g/ha (Digitaria sanguinalis [5]) [%]	inhibition at 60 g/ha (Eclipta prostrata [6]) [%]	further results
O=C(O)[C@@H]1CC[C@H](NC(=O)[C@@]2(C(F)(F)F)CC(c3cc(F)cc(F)c3)=NO2)C1 [CK5, reference compound]	40 to 60	40 to 60	< 20	20 to 40	60 to 80	60 to 80	40 to 60	
O=C(N[C@H]1C[C@@H](C(=O)O)C1)C1(C(F)(F)F)CC(c2cc(F)cc(F)c2)=NO1 (mixture of isomers) [I-206]								inhibition at 60 g/ha (Cyperus iria [1]): 80 to 100%; inhibition at 60 g/ha (Digitaria sanguinalis [2]): 80 to 100%; inhibition at 60 g/ha (Eclipta prostrata [3]): 80 to 100%; inhibition at 120 g/ha (Aegilops tauschii): 80 to 100%; Herbicidal activities, Alopecurus japonicus (inhibition rate class) (Alopecurus japonicus; Dosage 240 g a.i./ha): A (A indicates that the inhibition rate was greater than or equal to 80% to 100%); Herbicidal activities, Alopecurus myosuroides (inhibition rate class) (Alopecurus myosuroides; Dosage 240 g a.i./ha): A (A indicates that the inhibition rate was greater than or equal to 80% to 100%); inhibition at 120 g/ha (Cyperus iria [4]): 80 to 100%; inhibition at 120 g/ha (Digitaria sanguinalis [5]): 80 to 100%; inhibition at 120 g/ha (Eclipta prostrata [6]): 60 to 80%; Herbicidal activities, Eleusine indica (inhibition rate class) (Eleusine indica; Dosage 240 g a.i./ha): A (A indicates that the inhibition rate was greater than or equal to 80% to 100%); Herbicidal activities, Leptochloa chinensis (inhibition rate class) (Leptochloa chinensis; Dosage 240 g a.i./ha): A (A indicates that the inhibition rate was greater than or equal to 80% to 100%); Herbicidal activities, Lolium multiflorum (inhibition rate class) (Lolium multiflorum; Dosage 240 g a.i./ha): A (A indicates that the inhibition rate was greater than or equal to 80% to 100%)
O=C(O)[C@H]1CC[C@@H](NC(=O)[C@@]2(C(F)(F)F)CC(c3cc(F)cc(F)c3)=NO2)C1 [CK6, reference compound]	20 to 40	20 to 40	< 20	< 20	40 to 60	< 20	< 20	
C=C[C@]1(C(=O)N[C@H]2C[C@@H](C(=O)OCC)C2)CC(c2cc(F)cc(F)c2)=NO1 [I-5]	80 to 100	80 to 100	40 to 60	80 to 100	60 to 80	80 to 100		Herbicidal activities, Alopecurus japonicus (inhibition rate class) (Alopecurus japonicus; Dosage 120 g a.i./ha): A (A indicates that the inhibition rate was greater than or equal to 80% to 100%); Herbicidal activities, Alopecurus myosuroides (inhibition rate class) (Alopecurus myosuroides; Dosage 120 g a.i./ha): A (A indicates that the inhibition rate was greater than or equal to 80% to 100%); Herbicidal activities, Eleusine indica (inhibition rate class) (Eleusine indica; Dosage 120 g a.i./ha): A (A indicates that the inhibition rate was greater than or equal to 80% to 100%); Herbicidal activities, Leptochloa chinensis (inhibition rate class) (Leptochloa chinensis; Dosage 120 g a.i./ha): A (A indicates that the inhibition rate was greater than or equal to 80% to 100%); Herbicidal activities, Lolium multiflorum (inhibition rate class) (Lolium multiflorum; Dosage 120 g a.i./ha): A (A indicates that the inhibition rate was greater than or equal to 80% to 100%)
C=CC1(C(=O)NC2COC(C(=O)OC)C2)CC(c2cc(F)cc(F)c2)=NO1 (centres unmarked) [icafolin-methyl, reference compound]	40 to 60	40 to 60	40 to 60	40 to 60	20 to 40	20 to 40	40 to 60	
COC(=O)[C@H]1C[C@@H](NC(=O)C2(C(F)(F)F)CC(c3cc(F)cc(F)c3)=NO2)C1 (mixture of isomers) [I-208]								inhibition at 60 g/ha (Cyperus iria [1]): 80 to 100%; inhibition at 60 g/ha (Digitaria sanguinalis [2]): 80 to 100%; inhibition at 60 g/ha (Eclipta prostrata [3]): 80 to 100%; inhibition at 120 g/ha (Aegilops tauschii): 80 to 100%; Herbicidal activities, Alopecurus japonicus (inhibition rate class) (Alopecurus japonicus; Dosage 240 g a.i./ha): A (A indicates that the inhibition rate was greater than or equal to 80% to 100%); Herbicidal activities, Alopecurus myosuroides (inhibition rate class) (Alopecurus myosuroides; Dosage 240 g a.i./ha): A (A indicates that the inhibition rate was greater than or equal to 80% to 100%); inhibition at 120 g/ha (Cyperus iria [4]): 80 to 100%; inhibition at 120 g/ha (Digitaria sanguinalis [5]): 80 to 100%; inhibition at 120 g/ha (Eclipta prostrata [6]): 80 to 100%; Herbicidal activities, Eleusine indica (inhibition rate class) (Eleusine indica; Dosage 240 g a.i./ha): A (A indicates that the inhibition rate was greater than or equal to 80% to 100%); Herbicidal activities, Leptochloa chinensis (inhibition rate class) (Leptochloa chinensis; Dosage 240 g a.i./ha): A (A indicates that the inhibition rate was greater than or equal to 80% to 100%); Herbicidal activities, Lolium multiflorum (inhibition rate class) (Lolium multiflorum; Dosage 240 g a.i./ha): A (A indicates that the inhibition rate was greater than or equal to 80% to 100%)
COC(=O)[C@H]1CC[C@@H](NC(=O)[C@@]2(C(F)(F)F)CC(c3cc(F)cc(F)c3)=NO2)C1 [CK4, reference compound]	20 to 40	20 to 40	< 20	< 20	40 to 60	< 20	< 20	
COC(=O)[C@@H]1CC[C@H](NC(=O)[C@@]2(C(F)(F)F)CC(c3cc(F)cc(F)c3)=NO2)C1 [CK3, reference compound]	40 to 60	40 to 60	< 20	40 to 60	40 to 60	60 to 80	60 to 80	
C=C[C@]1(C(=O)N[C@H]2CO[C@@H](C(=O)O)C2)CC(c2cc(F)cc(F)c2)=NO1 [icafolin, reference compound]	40 to 60	40 to 60	< 20	40 to 60	20 to 40	20 to 40	< 20	
